For three compounds, IC50 results are on record in article PMC3907537, “Evaluation of the Endothelin Receptor Antagonists Ambrisentan, Bosentan, Macitentan, and Sitaxsentan as Hepatobiliary Transporter Inhibitors and Substrates in Sandwich-Cultured Human Hepatocytes” (PLoS ONE, 2014).

“And” between values parts separate entries of the source, which are not always exact repeats. Identical values can stand only once. Like-named read-outs stand apart in the source and are kept apart here.

In experiment [1] the target is T1, BSEP (Homo sapiens, UniProt O95342).
T1 construct: purchased Solvo Biotechnology, Budaors, Hungary; host or cells: Sf9 insect cells (membrane vesicles)
T1 sequence (O95342 whole entry): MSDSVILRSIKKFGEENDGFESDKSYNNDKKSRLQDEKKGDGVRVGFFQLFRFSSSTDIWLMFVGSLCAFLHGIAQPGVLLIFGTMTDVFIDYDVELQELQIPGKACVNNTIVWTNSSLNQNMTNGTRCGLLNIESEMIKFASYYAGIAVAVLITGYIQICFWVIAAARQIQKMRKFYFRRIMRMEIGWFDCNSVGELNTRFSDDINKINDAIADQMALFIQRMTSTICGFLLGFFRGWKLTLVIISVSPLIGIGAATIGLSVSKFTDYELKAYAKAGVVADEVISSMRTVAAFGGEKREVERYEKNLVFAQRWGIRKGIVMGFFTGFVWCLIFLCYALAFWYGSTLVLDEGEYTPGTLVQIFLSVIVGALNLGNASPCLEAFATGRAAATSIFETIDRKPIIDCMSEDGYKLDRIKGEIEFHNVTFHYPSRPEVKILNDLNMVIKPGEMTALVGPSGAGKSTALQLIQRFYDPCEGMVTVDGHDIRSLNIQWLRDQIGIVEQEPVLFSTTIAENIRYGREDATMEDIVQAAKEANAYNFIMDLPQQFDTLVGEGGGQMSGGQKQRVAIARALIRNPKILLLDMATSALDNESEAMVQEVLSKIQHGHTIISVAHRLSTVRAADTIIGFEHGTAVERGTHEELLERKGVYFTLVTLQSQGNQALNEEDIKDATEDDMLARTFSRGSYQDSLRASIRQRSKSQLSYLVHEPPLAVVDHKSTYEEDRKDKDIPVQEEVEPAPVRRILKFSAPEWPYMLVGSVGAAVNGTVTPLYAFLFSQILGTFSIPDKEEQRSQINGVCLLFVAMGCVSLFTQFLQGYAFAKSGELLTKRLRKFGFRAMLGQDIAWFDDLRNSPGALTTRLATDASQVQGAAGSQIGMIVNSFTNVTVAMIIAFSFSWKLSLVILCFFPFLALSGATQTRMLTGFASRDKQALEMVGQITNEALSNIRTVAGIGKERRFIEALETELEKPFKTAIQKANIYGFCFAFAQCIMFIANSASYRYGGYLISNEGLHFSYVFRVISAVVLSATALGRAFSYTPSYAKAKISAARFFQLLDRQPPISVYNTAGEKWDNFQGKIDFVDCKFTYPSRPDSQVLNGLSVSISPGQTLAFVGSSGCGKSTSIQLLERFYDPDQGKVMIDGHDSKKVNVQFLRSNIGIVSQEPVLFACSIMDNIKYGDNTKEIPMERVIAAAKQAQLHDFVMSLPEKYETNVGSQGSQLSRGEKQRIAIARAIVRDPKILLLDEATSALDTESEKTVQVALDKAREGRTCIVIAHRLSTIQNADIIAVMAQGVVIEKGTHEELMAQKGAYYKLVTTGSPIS
As to the kind of experiment: BSEP inhibition, taurocholate transport in Sf9 membrane vesicles. It counts as biochemical. To be noted: taurocholate 2 µM, mean ± SD of 3 independent studies in duplicate, tested 0.14–100 µM. An excerpt: (§1) Chinese Hamster Ovary (CHO) cells were obtained from Professor B. Stieger’s laboratory at University of Zurich, Zurich, Switzerland. Madin-Darby Canine Kidney strain II (MDCKII) cells were obtained from Nederlands Kanker Instituut (NKI), Amsterdam, Netherlands. NTCP-CHO cells, BSEP and MRP2 membrane vesicles were developed and validated at Solvo Biotechnology, Budaors, Hungary.
BSEP and MRP2 inhibition was studied in membrane vesicles isolated from sf9 insect cells overexpressing the respective transporters. Vesicular transport inhibition assays used test compounds incubated with membrane vesicle preparations (total protein: 50 µg/well) and probe substrates, taurocholate (2 µM) for BSEP or Estradiol-17-beta-glucuronide (0.2 µM) for MRP2, in the absence or presence of ATP. Reaction mixtures were preincubated for 15 min at 37°C. Reactions were started by the addition of 25 µL of 12 mM MgATP or assay buffer (for background controls), preincubated separately. Reactions were stopped after 5 min by the addition of 200 µL of ice-cold washing buffer and immediate filtration via glass fiber filters mounted to a 96-well plate (filter plate). The filters were washed, dried and the amount of substrate inside the filtered vesicles determined by liquid scintillation. Cyclosporin A (20 µM) or benzbromarone (100 µM), for BSEP or MRP2, respectively, were used as positive control inhibitors. Control membranes lacking transporter expression were used as negative control.
(§2) All assays were performed in duplicate. IC50 was defined as the test article concentration needed to inhibit the maximal transporter specific accumulation by 50%. IC50 values were calculated using non-linear fitting of % inhibition versus concentration to a sigmoidal curve with a variable Hill Coefficient using GraphPad Prism 5 (GraphPad Software Inc., San Diego, CA).

Experiment [2] deals with T2, Pgp (Homo sapiens, UniProt P08183).
T2 construct: host or cells: MDCKII
T2 sequence (P08183 whole entry): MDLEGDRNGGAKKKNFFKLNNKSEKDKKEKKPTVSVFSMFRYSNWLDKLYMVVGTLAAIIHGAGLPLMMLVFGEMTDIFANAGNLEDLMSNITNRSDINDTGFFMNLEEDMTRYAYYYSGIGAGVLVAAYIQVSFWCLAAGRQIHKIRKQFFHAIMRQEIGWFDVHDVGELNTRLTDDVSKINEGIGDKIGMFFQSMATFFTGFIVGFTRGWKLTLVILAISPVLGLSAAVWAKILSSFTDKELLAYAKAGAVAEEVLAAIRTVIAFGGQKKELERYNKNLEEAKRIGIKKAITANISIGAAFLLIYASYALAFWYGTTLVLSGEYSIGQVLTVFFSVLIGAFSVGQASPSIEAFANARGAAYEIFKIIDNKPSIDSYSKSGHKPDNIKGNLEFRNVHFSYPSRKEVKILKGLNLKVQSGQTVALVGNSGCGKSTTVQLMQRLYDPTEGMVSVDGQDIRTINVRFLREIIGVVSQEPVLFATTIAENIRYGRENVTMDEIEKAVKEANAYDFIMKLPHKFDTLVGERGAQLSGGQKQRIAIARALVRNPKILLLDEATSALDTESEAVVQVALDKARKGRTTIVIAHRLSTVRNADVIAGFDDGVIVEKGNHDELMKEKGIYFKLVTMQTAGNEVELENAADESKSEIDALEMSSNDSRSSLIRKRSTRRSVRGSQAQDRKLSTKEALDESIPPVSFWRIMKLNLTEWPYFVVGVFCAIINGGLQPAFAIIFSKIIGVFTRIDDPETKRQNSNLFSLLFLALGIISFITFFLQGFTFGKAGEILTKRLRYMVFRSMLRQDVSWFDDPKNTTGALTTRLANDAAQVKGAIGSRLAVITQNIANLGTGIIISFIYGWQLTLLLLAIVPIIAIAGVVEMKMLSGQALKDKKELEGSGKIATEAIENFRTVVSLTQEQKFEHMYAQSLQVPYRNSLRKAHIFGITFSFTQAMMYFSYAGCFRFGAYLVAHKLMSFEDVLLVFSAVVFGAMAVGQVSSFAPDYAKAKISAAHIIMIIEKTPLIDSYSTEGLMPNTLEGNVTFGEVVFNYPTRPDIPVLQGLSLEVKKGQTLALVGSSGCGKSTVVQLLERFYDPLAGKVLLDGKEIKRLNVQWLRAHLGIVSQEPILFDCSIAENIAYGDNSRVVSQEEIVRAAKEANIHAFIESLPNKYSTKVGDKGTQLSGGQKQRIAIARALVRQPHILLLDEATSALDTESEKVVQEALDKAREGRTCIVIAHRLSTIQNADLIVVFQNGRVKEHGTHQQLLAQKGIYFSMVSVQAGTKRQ
As to the kind of experiment: Pgp inhibition, Calcein AM in MDCKII cells. Type of experiment: cell-based. To be noted: mean ± SD of 3 independent studies in duplicate, tested 0.14–100 µM.
Description: as §1
MDCKII cells were maintained in DMEM with sodium pyruvate, Glutmax, 1% Penicillin/Streptomycin and 10% FBS in an incubator set at 37°C, 90% humidity and 5% CO2. MDCKII cells were seeded in 96-well black cell culture plates with clear bottoms at a density of 5×10^4 cells/well for Pgp and 2×10^4 cells/well for BCRP and grown to confluence. For the Pgp assay, test compounds were serially diluted in DMSO and then added into in cell culture medium (without FBS) containing 10 µM Calcein AM and incubated for 1 h. Following the removal of media containing Calcein AM and test compound, cells were washed five times with […] phosphate buffered saline containing magnesium and calcium (PBS). Wells were analyzed for Calcein AM fluorescence at an excitation of 494 nm and an emission of 517 nm. For the BCRP assay, test compounds were serially diluted DMSO and then spiked in cell culture medium (without FBS) containing 1 µM pheophorbide a (PhA) and incubated for 18 hours with MDCKII-ABCG2 cells. Following the removal of media containing PhA and test compound, cells were then washed five times with PBS. Wells were analyzed for PhA fluorescence at an excitation of 415 nm and an emission of 675 nm.
as §2

For experiment [3], the target named is T3, OATP1B3 (Homo sapiens, UniProt Q9NPD5).
T3 construct: host or cells: CHO
T3 sequence (Q9NPD5 1-702): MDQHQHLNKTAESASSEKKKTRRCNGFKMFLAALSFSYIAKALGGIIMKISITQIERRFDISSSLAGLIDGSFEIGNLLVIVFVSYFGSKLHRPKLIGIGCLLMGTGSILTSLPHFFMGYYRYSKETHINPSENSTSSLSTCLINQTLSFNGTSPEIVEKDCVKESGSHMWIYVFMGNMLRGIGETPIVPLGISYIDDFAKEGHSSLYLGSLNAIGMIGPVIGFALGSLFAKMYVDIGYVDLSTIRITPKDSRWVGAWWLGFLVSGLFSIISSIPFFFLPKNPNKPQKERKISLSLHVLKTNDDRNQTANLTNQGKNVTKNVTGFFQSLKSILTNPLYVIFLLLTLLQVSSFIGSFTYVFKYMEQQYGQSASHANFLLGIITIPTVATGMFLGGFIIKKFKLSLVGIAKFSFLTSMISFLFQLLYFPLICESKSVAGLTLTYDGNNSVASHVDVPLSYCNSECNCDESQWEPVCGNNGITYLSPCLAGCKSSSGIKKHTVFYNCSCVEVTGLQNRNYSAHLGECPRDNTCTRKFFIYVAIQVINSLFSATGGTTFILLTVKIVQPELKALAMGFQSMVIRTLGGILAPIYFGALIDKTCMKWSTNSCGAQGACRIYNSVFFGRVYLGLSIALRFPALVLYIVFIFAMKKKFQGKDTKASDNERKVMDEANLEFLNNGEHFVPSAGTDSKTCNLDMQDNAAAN
As to the kind of experiment: OATP1B3 inhibition, Fluo 3 uptake in transfected CHO cells. It counts as cell-based.
Description: as §1
CHO cells, either wild type or transfected with the genes encoding human NTCP, OATP1B1 and OATP1B3, were maintained in Dulbecco’s Modification of Eagle’s Medium (DMEM) containing 1,000 mg/L D-glucose, L-glutamine, 25 mM HEPES buffer, 110 mg/L sodium pyruvate, 1% Penicillin/Streptomycin, 10% fetal bovine serum (FBS), 0.05 mg/mL L proline and 0.5 mg/mL of geneticin G-418. Cells were maintained in incubators set at 37°C, 90% humidity and 5% CO2. OATP1B1 and OATP1B3 over-expressing cells were seeded in BioCoat Poly-D-Lysine coated 96-well black cell culture plates with clear bottoms at a density of 1×10^5 cells/well. Sodium butyrate (10 mM) was added to the OATP1B1 and OATP1B3 cells once seeded to increase the protein expression level and the cells were grown to confluence overnight. The assay buffer contained 142 mM NaCl, 5 mM KCl, 1 mM KH2PO4, 1.2 mM MgSO4, 1.5 mM CaCl2, 5 mM Glucose and 12.5 mM HEPES (pH 7.4). After removal of the media and before adding test compounds, the cells were washed twice with 37°C assay buffer followed by a 0.5 h pre-incubation with assay buffer. […] Wells were analyzed for Fluo 3 fluorescence at an excitation of 485 nm and emission of 530 nm. Inhibition of NTCP was studied using similar conditions to those described for OATP1B1 and OATP1B3 except that inhibition of the uptake ^3H taurocholate into transfected CHO cells was monitored using radioactive scintillation counting.
All assays were performed in duplicate. […] IC50 values were calculated using non-linear fitting of % inhibition versus concentration to a sigmoidal curve with a variable Hill Coefficient using GraphPad Prism 5 (GraphPad Software Inc., San Diego, CA).

[4] abbreviates: CHO cells, Fluo 3, mean ± SD of 3 independent studies in duplicate, tested 0.14–100 µM, read-out: OATP1B3 IC50.

Consider `COC(c1ccccc1)(c1ccccc1)[C@H](Oc1nc(C)cc(C)n1)C(=O)O` [ambrisentan], for which the figures for the IC50 in experiment [1], in experiment [2] and in experiment [3] were > 100 µM, > 100 µM and 44.6 ± 23.8 µM, respectively.

In the case of `COc1ccccc1Oc1c(NS(=O)(=O)c2ccc(C(C)(C)C)cc2)nc(-c2ncccn2)nc1OCCO` [bosentan], the IC50 (as a rule, the concentration that gives 50% inhibition) in experiment [1] is 42 µM and 42.1 µM; in experiment [2], > 100 µM; in experiment [3] (setting [4]), 5.2 ± 2.1 µM.

On to `CCCNS(=O)(=O)Nc1ncnc(OCCOc2ncc(Br)cn2)c1-c1ccc(Br)cc1` [macitentan], for which the IC50 was 12 µM and 11.9 µM in experiment [1]; 64 ± 15 µM in experiment [2]; 2.1 ± 0.3 µM in experiment [3] (setting [4]).
